Laboratory results published in publication PMC6934184, “Selective DNA-PKcs inhibition extends the therapeutic index of localized radiotherapy and chemotherapy” (The Journal of Clinical Investigation, 2019).

Biological target: T1, GRK7 (Homo sapiens, UniProt Q8WTQ7)
T1 construct: purchased Thermo Fisher Scientific (Life Technologies) SelectScreen
Assay: SelectScreen Z'LYTE
Type: biochemical
Procedure, shortened: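 Compound tested in SelectScreen activity assays, Z'LYTE for CSF1R, CDK1/cyclin B and MAP2K6 and Adapta for CAMK1. ATP for CAMK1 was listed as 10, and Km app was used for CSF1R. Results are expressed in percent.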

T1 sequence (Q8WTQ7 whole entry): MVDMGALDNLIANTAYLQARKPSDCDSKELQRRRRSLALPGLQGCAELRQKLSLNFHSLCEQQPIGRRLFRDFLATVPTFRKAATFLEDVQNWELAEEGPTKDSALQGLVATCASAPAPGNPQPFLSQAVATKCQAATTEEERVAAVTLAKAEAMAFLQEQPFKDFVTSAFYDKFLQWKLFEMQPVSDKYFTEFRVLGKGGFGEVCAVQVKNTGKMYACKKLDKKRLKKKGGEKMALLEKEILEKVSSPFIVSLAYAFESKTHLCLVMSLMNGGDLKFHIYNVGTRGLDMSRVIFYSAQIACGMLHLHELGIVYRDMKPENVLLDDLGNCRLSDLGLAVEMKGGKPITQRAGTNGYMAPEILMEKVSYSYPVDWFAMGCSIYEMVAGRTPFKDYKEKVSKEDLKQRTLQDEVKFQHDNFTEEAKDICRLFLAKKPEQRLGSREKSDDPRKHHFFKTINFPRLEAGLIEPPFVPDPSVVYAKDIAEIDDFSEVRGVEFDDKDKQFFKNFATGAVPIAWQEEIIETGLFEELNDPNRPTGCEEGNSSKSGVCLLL

CN(C(=O)CN1CCOCC1)c1ccc2sc3c(-c4cccc5c(=O)cc(N6CC7CCC(C6)O7)oc45)cccc3c2c1 [NU5455] was tested. Which inhibition at 1 µM did it give?
Its inhibition at 1 µM is -3%.
